Results reported in publication PMC3248963 (Bioorganic & medicinal chemistry letters, 2011).
Where no end group is shown, it is not given here.

What was measured:
GLP1 receptor = conditions: cited from earlier work
[1] = system: dipeptidyl peptidase 4 (DPP4); conditions: cited from earlier work
M397L GLP1 receptor = M397L GLP1 receptor (Homo sapiens, UniProt P43220, M397L); test: intracellular cAMP response assay, M397L mutant receptor; format: cell-based
[2] = molecular target: human GLP1 receptor (CHO-GLP1R cells) (Homo sapiens, UniProt P43220); test: intracellular cAMP response assay, wild type receptor; format: cell-based; conditions: EC50 values
Chain of human GLP1 receptor (CHO-GLP1R cells) (P43220 24-463): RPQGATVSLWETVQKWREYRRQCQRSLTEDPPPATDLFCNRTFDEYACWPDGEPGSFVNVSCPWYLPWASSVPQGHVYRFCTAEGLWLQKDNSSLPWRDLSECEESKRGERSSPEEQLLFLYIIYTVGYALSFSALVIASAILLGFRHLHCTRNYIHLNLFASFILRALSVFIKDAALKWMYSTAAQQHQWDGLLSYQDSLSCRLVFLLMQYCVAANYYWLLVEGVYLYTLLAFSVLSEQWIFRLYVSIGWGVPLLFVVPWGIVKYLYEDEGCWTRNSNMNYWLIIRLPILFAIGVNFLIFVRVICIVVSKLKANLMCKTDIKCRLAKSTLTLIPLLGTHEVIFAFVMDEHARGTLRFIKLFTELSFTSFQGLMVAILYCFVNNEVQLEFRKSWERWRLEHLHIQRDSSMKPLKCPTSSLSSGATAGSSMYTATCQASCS

[3] = molecular target: GLP1 receptor (CHO-GLP1R cell membranes) (Homo sapiens, UniProt P43220); test: photoaffinity labeling of wild type receptor by radioiodinated Bpa-NRTFD
Chain of GLP1 receptor (CHO-GLP1R cell membranes) (P43220 24-463): as above

Chain of M397L GLP1 receptor (P43220 24-463 M397L): as the sequence (P43220 24-463) above, with M374L counted along it

EC50 (M397L GLP1 receptor) | EC50 [2] | IC50 [3] | Compound | blockade of agonist action by high affinity peptide antagonist (GLP1 receptor) | degradation by DPP4 [1]
 |  |  | CC[C@H](C)[C@H](NC(=O)[C@H](Cc1ccccc1)NC(=O)[C@H](CCC(=O)O)NC(=O)[C@H](CCCCN)NC(=O)[C@H](C)NC(=O)[C@H](C)NC(=O)[C@H](CCC(N)=O)NC(=O)CNC(=O)[C@H](CCC(=O)O)NC(=O)[C@H](CC(C)C)NC(=O)[C@H](Cc1ccc(O)cc1)NC(=O)[C@H](CO)NC(=O)[C@H](CO)NC(=O)[C@@H](NC(=O)[C@H](CC(=O)O)NC(=O)[C@H](CO)NC(=O)[C@@H](NC(=O)[C@H](Cc1ccccc1)NC(=O)[C@@H](NC(=O)CNC(=O)[C@H](CCC(=O)O)NC(=O)[C@H](C)NC(=O)[C@@H](N)Cc1c[nH]cn1)[C@@H](C)O)[C@@H](C)O)C(C)C)C(=O)N[C@@H](C)C(=O)N[C@@H](Cc1c[nH]c2ccccc12)C(=O)N[C@@H](CC(C)C)C(=O)N[C@H](C(=O)N[C@@H](CCCCN)C(=O)NCC(=O)N[C@@H](CCCNC(=N)N)C(N)=O)C(C)C [GLP1] | competitively blocked | rapidly degraded
2200 ± 800 nM | 1600 ± 500 nM | 3100 ± 800 nM | NRTFD [NRTFD] |  | 
